Three compounds from US9241991B2, “Agents, compositions, and methods for treating pruritus and related skin conditions” (The Brigham and Women's Hospital, Inc., priority 2010, dated 2016) can be followed below.

Series [1] deals with T1, TLR3 (Mus musculus, UniProt Q99MB1).
T1 sequence (Q99MB1 26-905): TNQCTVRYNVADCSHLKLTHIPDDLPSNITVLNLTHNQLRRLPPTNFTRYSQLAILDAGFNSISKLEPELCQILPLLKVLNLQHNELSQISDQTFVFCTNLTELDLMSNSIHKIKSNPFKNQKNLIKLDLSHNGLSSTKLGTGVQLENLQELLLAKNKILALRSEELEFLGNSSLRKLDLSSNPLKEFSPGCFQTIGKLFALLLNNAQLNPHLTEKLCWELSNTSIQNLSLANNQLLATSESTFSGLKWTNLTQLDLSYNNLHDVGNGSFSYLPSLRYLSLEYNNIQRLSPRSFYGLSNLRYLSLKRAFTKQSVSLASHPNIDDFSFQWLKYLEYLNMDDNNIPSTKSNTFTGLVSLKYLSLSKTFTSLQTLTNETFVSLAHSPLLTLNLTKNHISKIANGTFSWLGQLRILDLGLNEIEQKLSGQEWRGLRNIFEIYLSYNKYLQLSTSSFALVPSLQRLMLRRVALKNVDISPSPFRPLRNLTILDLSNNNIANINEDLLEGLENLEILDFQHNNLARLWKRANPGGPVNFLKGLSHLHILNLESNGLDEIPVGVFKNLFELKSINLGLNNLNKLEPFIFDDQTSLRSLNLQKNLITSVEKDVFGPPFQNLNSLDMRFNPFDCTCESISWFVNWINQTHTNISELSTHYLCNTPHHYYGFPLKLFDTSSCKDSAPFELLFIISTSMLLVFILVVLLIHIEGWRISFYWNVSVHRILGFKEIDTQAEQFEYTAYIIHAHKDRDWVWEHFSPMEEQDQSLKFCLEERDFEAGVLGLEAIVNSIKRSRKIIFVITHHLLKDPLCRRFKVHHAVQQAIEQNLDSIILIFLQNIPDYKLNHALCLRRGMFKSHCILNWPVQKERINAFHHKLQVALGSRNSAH
As to the kind of experiment: Patch-clamp recording of PIC-induced inward currents in dissociated DRG neurons. The arrangement: from tissue; host or cells: mouse DRG (dissociated small neurons), lumbar spinal cord slices, neck skin of live mice. It is filed as cell-based, mice. Here is the method:
DRGs were removed aseptically from 4-week old mice and first incubated with collagenase (1.25 mg/ml, Roche)/dispase-II (2.4 units/ml, Roche) at 37° C. for 90 min, then digested with 0.25% trypsin (Cellgro) for 8 min at 37° C., followed by 0.25% trypsin inhibitor (Sigma). Cells were then mechanically dissociated with a flame polished Pasteur pipette in the presence of 0.05% DNAse I (Sigma). DRG cells were plated onto poly-D-lysine and laminin-coated slide chambers (for immunocytochemistry) or glass cover slips (for electrophysiology) and grown in a neurobasal defined medium (with 2% B27 supplement, Invitrogen) in the presence of 5 μM AraC, at 36.5° C., with 5% carbon dioxide.
Single-cell RT-PCR was performed as previously described (6). DRG cultures were prepared as above described and grown on glass cover slips coated with poly-D-lysine and laminin. Whole-cell patch clamp recordings were performed at room temperature to measure currents in dissociated DRG neurons with small-sizes using Axopatch-200B amplifier (Axon Instruments, Union City, USA). The patch pipettes were pulled from borosilicate capillaries (Chase Scientific Glass Inc., Rockwood, Calif., USA). When filled with the pipette solution, the resistance of the pipettes was 4˜5 MΩ. The recording chamber (volume 300 μl) was continuously superfused (3-4 ml/min). Series resistance was compensated for (>80%), and leak subtraction was performed. Data were low-pass-filtered at 2 KHz, sampled at 10 KHz. The pClamp8 (Axon Instruments) software was used during experiments and analysis. The pipette solution was composed of (in mM): 126 K-gluconate, 10 NaCl, 1 MgCl2, 10 EGTA, 2 NaATP, 0.1 MgGTP, pH 7.3 with KOH, 295-300 mOsm. Extracellular solution contained (in mM): 140 NaCl, 5 KCl, 2 CaCl2, 1 MgCl2, 10 HEPES, 10 glucose adjusted to pH 7.4 with NaOH, osmolarity 310 mOsm. Inward currents were recorded at a holding potential of −60 mV. In some experiments, following parch-clamp recording, the recorded DRG neurons were collected for single-cell RT-PCR analysis.

Series [2] has as its target T1, TLR3. Briefly: Patch clamp recording of sEPSCs in lamina II neurons of spinal cord slices, PIC. In kind it is cell-based. The arrangement: from tissue; host or cells: mouse DRG (dissociated small neurons), lumbar spinal cord slices, neck skin of live mice. Particulars: PIC 100 ng/ml, slices of WT but not Tlr3-/- mice; P<0.05. How it is done:
As we previously reported (18), a portion of the lumbar spinal cord (L4-L5) was removed from mice (4-6 week old) under urethane anesthesia (1.5-2.0 g/kg, i.p.) and kept in pre-oxygenated ice-cold Krebs solution. Transverse slices (600 μm) were cut on a vibrating microslicer. The slices were perfused with Kreb's solution (8-10 ml/min) that was saturated with 95% O2 and 5% CO2 at 36±1° C. for at least 1-3 hours prior to experiment. The Kreb's solution contains (in mM): NaCl 117, KCl 3.6, CaCl2 2.5, MgCl2 1.2, NaH2PO4 1.2, NaHCO3 25, and glucose 11.
The whole cell patch-clamp recordings were made from lamina IIo neurons in voltage clamp mode. Patch pipettes were fabricated from thin-walled, borosilicate, glass-capillary tubing (1.5 mm o.d., World Precision Instruments). After establishing the whole-cell configuration, neurons were held at the potential of −70 mV to record sEPSCs. The resistance of a typical patch pipette is 5-10 M. The internal solution contains (in mM): potassium gluconate 135, KCl 5, CaCl2 0.5, MgCl2 2, EGTA 5, HEPES 5, ATP-Mg 5. Membrane currents were amplified with an Axopatch 200B amplifier (Axon Instruments) in voltage-clamp mode. Signals were filtered at 2 kHz and digitized at 5 kHz. Data were stored with a personal computer using pCLAMP 10 software and analyzed with Mini Analysis (Synaptosoft Inc.).
For orientation: In patch-clamp work, channel activity is measured electrically.

Series [3] has as its target T1, TLR3. As to the kind of experiment: Scratching after intradermal PIC in naive mice and after AEW dry skin treatment. It is filed as in vivo. The arrangement: from tissue; host or cells: mouse DRG (dissociated small neurons), lumbar spinal cord slices, neck skin of live mice. How it is done:
Mice were habituated to the testing environment daily for at least two days before analysis. <ice were shaved at the back of the neck the day before injection. We put mice in small plastic chambers (14×18×12 cm) on an elevated metal mesh floor and allowed 30 min for habituation before examination. We injected 50 μl of pruritic agent intradermally in the nape of the neck and counted the number of scratches every 5 min for 30 min after the injection. A scratch was counted when a mouse lifted its hindpaw to scratch the shaved region and returned the paw to the floor or to the mouth for licking. On the basis of previous reports (4; 5) and our preliminary studies (6), we chose the following doses for pruritic agents: 25 ng for ET-1, 20 μg for 5-HT, 100 μg for HTMT, compound 48/80, and SLIGRL-NH2, 200 μg for chloroquine, 300 μg for trypsin, and 500 μg for histamine and 4-MeHA. We also injected diluted formalin (0.6%, 50 μl) in the nape to induce scratching behaviors. The experimenters were blinded to the genotypes of the animals. We also produced a dry skin model for chronic itch as described in detail previously (7), by painting neck skin with acetone and diethyether (1:1) following by water (AEW) twice a day for 7 days, and examined spontaneous itch by counting the number of scratches for 60 minutes on day 8 and 9.

In series [4] the test system is TLR3. As to the kind of experiment: TLR3 protein and mRNA levels in DRGs after intrathecal TLR3 antisense ODNs (Western blotting, quantitative PCR). It is filed as in vivo. Particulars: intrathecal AS-ODNs 10 μg daily for 5 days, adult WT mice; P<0.05. Here is the method: (§1) We injected pruritic agents intradermally in the nape of the neck (50 μl) or cheek (10 μl), respectively. We purchased histamine, compound 48/80, trypsin, chloroquine, serotonin, TLR3 agonist polyribo-inosinic/cytidylic acid (PIC), and complete Freund's adjuvant (CFA) from Sigma-Aldrich, histamine H1 receptor agonist histamine-trifluoromethyl-toluidine (HTMT), capsaicin, and the H4R-selective agonist 4-methylhistamine (4-MeHA) from Tocris, and endothelin-1 (ET-1) from ALEXIS Biochemicals. […] Antisense oligodeoxynucleotides (AS-ODN; 5′-[…]-3′; SEQ ID NO:1) targeting TLR3 and mismatch ODN (MM-ODN; 5′-[…]-3′; SEQ ID NO:2) were synthesized by Invitrogen according to the published sequences (2). AS-ODN (10 μg) or MM-ODN were intrathecally injected once a day for 5 days. To target DRG and spinal cord cells, TRIF inhibitor (10 μl) were delivered intrathecally into cerebral spinal fluid via a lumbar puncture. […]
Mice were terminally anesthetized with isoflurane and transcardially perfused with PBS, and the DRGs were rapidly removed and homogenized in a lysis buffer containing a cocktail of protease inhibitors and phosphatase inhibitors. The protein concentrations were determined by BCA Protein Assay (Pierce), and 30 μg of proteins were loaded for each lane and separated on SDS-PAGE gel (4-15%, Bio-Rad). […]
(Immunoblotting shows a protein as a band on a membrane.)

Series [5] relates to TLR4. Briefly: TLR4 expression in the DRG after intrathecal AS-ODNs (specificity). In kind it is in vivo, mice. Here is the method:
We injected pruritic agents intradermally in the nape of the neck (50 μl) or cheek (10 μl), respectively. We purchased histamine, compound 48/80, trypsin, chloroquine, serotonin, TLR3 agonist polyribo-inosinic/cytidylic acid (PIC), and complete Freund's adjuvant (CFA) from Sigma-Aldrich, histamine H1 receptor agonist histamine-trifluoromethyl-toluidine (HTMT), capsaicin, and the H4R-selective agonist 4-methylhistamine (4-MeHA) from Tocris, and endothelin-1 (ET-1) from ALEXIS Biochemicals. […] Antisense oligodeoxynucleotides (AS-ODN; 5′-[…]-3′; SEQ ID NO:1) targeting TLR3 and mismatch ODN (MM-ODN; 5′-[…]-3′; SEQ ID NO:2) were synthesized by Invitrogen according to the published sequences (2). AS-ODN (10 μg) or MM-ODN were intrathecally injected once a day for 5 days. To target DRG and spinal cord cells, TRIF inhibitor (10 μl) were delivered intrathecally into cerebral spinal fluid via a lumbar puncture. A successful spinal puncture was evidenced by a brisk tail-flick after the needle entry into subarachnoid space (3). Most reagents were dissolved in sterile saline. Capsaicin was dissolved in 10% DMSO.
We collected back hairy skin and cervical DRGs from 4 pairs of WT and Tlr3^−/− mice and isolated total RNAs using RNeasy Plus Mini kit (Qiagen, Valencia, Calif.). […]

The subject of series [6] is TLR3. Briefly: Compound 48/80- and chloroquine-induced scratching after intrathecal TLR3 AS-ODNs. In kind it is in vivo. Particulars: intrathecal AS-ODNs 10 μg daily for 5 days, adult mice; P<0.05. Here is the method:
as §1
Mice were habituated to the testing environment daily for at least two days before analysis. <ice were shaved at the back of the neck the day before injection. […] We injected 50 μl of pruritic agent intradermally in the nape of the neck and counted the number of scratches every 5 min for 30 min after the injection. A scratch was counted when a mouse lifted its hindpaw to scratch the shaved region and returned the paw to the floor or to the mouth for licking. […]

The subject of series [7] is DRG neurons. Briefly: Calcium imaging from cultured DRG neurons. Particulars: wild-type mice DRG neurons. It is filed as cell-based. How it is done: DRGs from all spinal levels of 4-week old mice were collected in cold DH10 (90% DMEM/F-12, 10% FBS, 100 U/ml penicillin, and 100 μg/ml Streptomycin, Gibco) and treated with enzyme solution (5 mg/ml Dispase, 1 mg/ml Collagenase Type I in HPBS without Ca^++ and Mg^++, Gibco) at 37° C. Following trituration and centrifugation, cells were resuspended in DH10, plated on glass cover slips coated with poly-D-lysine (0.5 mg/ml, Stoughton, Mass.) and laminin (10 μg/ml, Invitrogen), cultured in an incubator ([…] and 5% CO2) at 37° C. and used within 24 hours. Neurons were loaded with Fura 2-acetomethoxy ester (Molecular Probes) for 30 min in the dark at room temperature. After washing, cells were imaged at 340 and 380 nm excitation to detect intracellular free calcium. To compare the response to histamine, chloroquine, and capsaicin between WT and Tlr3-deficient DRG neurons, calcium imaging assays were performed with an experimenter blind to genotype (n=3 per genotype), and the percentages of DRG neurons showing calcium responses were determined as we previously described (23).

Series [8] has as its target T2, TRPV1 (Mus musculus, UniProt Q704Y3). Briefly: Behavior after intrathecal injection of capsaicin. In kind it is in vivo. Particulars: WT mice.
For series [9], the target named is T2, TRPV1. As to the kind of experiment: Patch clamp recording of sEPSCs in lamina II neurons of spinal cord slices, capsaicin. In kind it is cell-based. The arrangement: central terminals of TRPV1-expressing nociceptors; from tissue; host or cells: mouse lumbar spinal cord slices (L4-L5); live mice (intrathecal capsaicin, resiniferatoxin pretreatment). Particulars: capsaicin 1 μM, WT mice spinal cord slices.

T2 sequence (Q704Y3 whole entry): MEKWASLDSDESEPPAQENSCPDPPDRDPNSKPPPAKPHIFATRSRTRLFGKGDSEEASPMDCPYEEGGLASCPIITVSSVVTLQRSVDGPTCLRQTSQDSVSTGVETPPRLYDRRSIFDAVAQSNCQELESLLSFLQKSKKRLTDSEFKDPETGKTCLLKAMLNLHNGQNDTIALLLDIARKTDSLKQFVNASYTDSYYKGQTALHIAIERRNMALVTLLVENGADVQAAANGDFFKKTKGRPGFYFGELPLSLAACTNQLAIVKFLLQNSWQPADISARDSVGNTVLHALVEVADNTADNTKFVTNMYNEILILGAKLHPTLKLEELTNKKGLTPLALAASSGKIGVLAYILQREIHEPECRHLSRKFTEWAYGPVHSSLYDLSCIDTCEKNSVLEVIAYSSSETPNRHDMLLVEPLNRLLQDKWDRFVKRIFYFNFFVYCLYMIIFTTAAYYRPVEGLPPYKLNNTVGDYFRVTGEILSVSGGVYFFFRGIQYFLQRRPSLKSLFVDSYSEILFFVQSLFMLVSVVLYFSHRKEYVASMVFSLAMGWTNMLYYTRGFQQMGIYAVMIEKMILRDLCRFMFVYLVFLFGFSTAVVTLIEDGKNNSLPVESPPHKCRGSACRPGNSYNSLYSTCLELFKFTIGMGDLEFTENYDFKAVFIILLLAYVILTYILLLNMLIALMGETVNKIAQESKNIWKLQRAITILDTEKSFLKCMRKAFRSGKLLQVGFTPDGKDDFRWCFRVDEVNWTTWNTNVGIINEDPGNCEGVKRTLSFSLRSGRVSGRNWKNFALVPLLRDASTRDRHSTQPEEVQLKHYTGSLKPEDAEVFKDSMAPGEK

For polyribo-inosinic/cytidylic acid [PIC], in series [1] (PIC 200 ng/ml, small DRG neurons, all also express TLR3 mRNA), the “neurons that respond to PIC” value is “four neurons (out of ten)”. Besides, the “inward currents in DRG neurons from Tlr3-/- mice” value in series [1] (Tlr3-/- mice) was “failed to induce inward currents”. For the same compound, the “neurons in which an inward current was elicited” value in series [1] (dissociated DRG neurons, WT, PIC 100-1000 ng/ml, 5 out of 8) is on record as 60%. Moreover, in series [2], the sEPSC frequency entry is recorded as “increased”. The “scratching responses in naive mice” value in series [3] (intradermal PIC 0.1-100 μg) is on record as “failed to induce obvious scratching responses”. Also, the “spontaneous scratching after AEW treatment” value in series [3] (intradermal PIC, TLR3-dependent, P<0.05) is “able to potentiate”.
With “AS-ODNs: Antisense oligodeoxynucleotides 5′-AACAATTGCTTCAAGTCC-3′ (SEQ ID NO:1) targeting TLR3, synthesized by Invitrogen (DNA, backbone not given here)”, the “TLR3 protein and mRNA levels in DRGs” value in series [4] is “partial knockdown”. Further, in series [5], the “TLR4 expression in the DRG” value is “did not affect”. Further, in [6], the chloroquine-induced scratching entry was “significantly inhibited” and the “compound 48/80-induced scratching” value was “significantly inhibited”.
For `COc1cc(CNC(=O)CCCC/C=C/C(C)C)ccc1O` [capsaicin], in series [7], the “neurons with intracellular Ca2+ increases” value amounted to 39%. The “behavior after intrathecal injection” value in series [8] was “induced biting, licking and scratching behavior”. For the same compound, the “sEPSC frequency in lamina II neurons” value in series [9] is recorded as “dramatic increase”.
